According to patent publication US20120190659A1, “ANGIOGENESIS INHIBITORS” (Children's Medical Center Corporation, priority 2009, published 2012):

Columns and labels:
[1] = test system: human umbilical vascular endothelial (HUVE) cells; test: Compound toxicity in HUVE cells (morphology after 24 h culture); type: cell-based; details: 50-2000 nM, 5% FBS/EGM2 media
Method: HUVE cells were cultured for 24 hours on standard tissue culture dishes in the presence of EJC 1-6 over a range of concentration (50-2000 nM). […] (FIGS. 1 and 2).

[2] = test system: human umbilical vascular endothelial (HUVE) cells; test: HUVE cell growth (BrdU incorporation); type: cell-based; details: for growth of HUVE cells (BrdU incorporation): 0, 200, 1000 and 2000 nM (FIG. 3B); for BrdU incorporation: 1 μM (FIG. 3A); for doses that inhibited BrdU incorporation: FIGS. 3A & 3B; for HUVE cell growth induced by PDGF / HUVE cell growth induced by VEGF / HUVE cell growth induced by bFGF: concentration not given
Method: Incorporation of 5-bromo-2′-deoxyuridibe (BrdU) is a common method used to detect the DNA replication in actively proliferating cells. Inhibition of cell growth is inferred by the decrease of BrdU incorporation into the cells. […] The assay can be preformed in the presence or absence of growth factors such as VEGF, bFGF and PDGF. This assay was performed by a procedure described in Huang S, Chen C S, Ingber D E. “Control of cyclin D1, p 27(Kip1), and cell cycle progression in human capillary endothelial cells by cell shape and cytoskeletal tension.” Mol Biol Cell. 1998, 9:3179-93, the teachings of which are incorporated herein by reference.

[3] = test system: human umbilical vascular endothelial (HUVE) cells; test: HUVE cell migration, transwell migration assay stimulated by VEGF; type: cell-based; details: for HUVE cell migration: 20 ng/ml VEGF
Method: Cell migration is an important aspect of angiogenesis. The effect of the test compounds on HUVE cell motility as stimulated by VEGF was examined using a transwell migration assay. This assay was performed by a similar procedure described in Shimizu A, Mammoto A, Italiano J E Jr, Pravda E, Dudley A C, Ingber D E, Klagsbrun M. “ABL2/ARG tyrosine kinase mediates SEMA3F-induced RhoA inactivation and cytoskeleton collapse in human glioma cells.” J. Biol. Chem. 2008, 283:27230-8, the teaching of which are incorporated by reference.
Briefly, transwell membranes (Coster, N.Y.) were coated with 0.5% gelatin, and cells were seeded (10^5 cells/100 μl) with 0.3% FBS/EBM2. The test compound was added to the both sides of the chamber. Cells were stained with Giemsa solution 16 hours later, and counted in 10 random fields (×400).

[4] = test system: human umbilical vascular endothelial (HUVE) cells; test: Tube formation of HUVE cells on Matrigel; type: cell-based; details: for tube formation, quantitative analysis of mean tube length: cultured with VEGF in the basal EBM2 medium (FIG. 12)
Method: The effect of an agent on tube formation of HUVE cells was determined by a procedure described in Grant D S, Kinsella J L, Kibbey M C, LaFlamme S, Burbelo P D, Goldstein A L, Kleinman H K “Matrigel induces thymosin beta 4 gene in differentiating endothelial cells.” J Cell Sci. 1995, 108:3685-94, the teachings of which are incorporated by reference.
Briefly, HUVE cells (10^4 cells/150 μl of EBM-2) were plated on Matrigel™ (BD biosciences) and incubated for 12-16 hrs in the presence of VEGF (20 ng/ml) and the test compound. Tube formation was assessed in 10 random fields (4×).

[5] = test system: developing vasculature of the newborn mouse retina; test: In vivo screening assay for inhibitors of retinal angiogenesis (intravitreous injection, newborn mice); details: for retinal vessel formation: 5 nmol single injection
Source text: Blood vessel formation is critical for organ formation in the body. Compounds that inhibit angiogenesis within specific tissue types have therapeutic potential. For example, compounds that are effective in the retina may be used for the treatment of many types of blindness and other opthalmological diseases. Therefore, an in vivo method to screen for compounds that inhibit the growing vascular networks within the developing whole retina in eyes of living newborn mice was developed.
To screen in vivo in the eye for inhibitors of retinal angiogenesis, we adapted and modified the system described in Mammoto, A., Connor, K. M., Mammoto, T., Yung, C. W., Huh, D., Aderman, C. M., Mostoslaysky, G., Smith, L. E. H., & Ingber, D. E. A mechanosensitive transcriptional mechanism that controls angiogenesis. Nature 457, 1103-1108 (2009); and Shih, S. C., Ju, M., Liu, N. & Smith, L. E. Selective stimulation of VEGFR-1 prevents oxygen-induced retinal vascular degeneration in retinopathy of prematurity. J. Clin. Invest. 112, 50-7 (2003), the teachings of both are incorporated herein by reference. This assay was performed by a procedure described in Chen J, Connor K M, Aderman C M, Smith L E. “Erythropoietin deficiency decreases vascular stability in mice.” J. Clin. Invest. 2008, 118:526-33, the teachings of which are incorporated herein by reference.
After intraperitoneal injection of Avertin (125-240 mg/kg), the eyelid of mice was opened in a gentle manner by using tiny sterile blunt forceps. Test compound was injected into the vitreous of one eye of the mouse and a vehicle was injected into the other eye of the same mouse at either P6 or P14. Injections were performed by inserting an Exmire microsyringe (MS-NE05, ITO Corp. Fuji, Japan) into the vitreous 1 mm posterior to the corneal limbus. Pupils were dilated with 1% tropicamide. Insertion and the injection (0.3-0.5 μL solution) were directly viewed through an operating microscope, taking care not to injure the lens or the retina. The time points for intravitreous injection were set at P6 and P14 because these stages represent distinct developmental stages during vascular network formation. Blood vessels start spreading over the surface of retinal tissue at early times (P4-P6), then these distributed blood vessels start migrating into the deeper layer of the retina to make a three-dimensional vascular network at later times (P6-P14). Thus, using this approach, screening for inhibitors of initiation of angiogenesis at early times, and agents that induce regression of preexisting capillary vessels at the later time point can be identified.
After injection, the eyelid was treated with bacitracin eye antibiotic ointment, and eyelids naturally reformed after the procedure. Vascular network formation in the retina was assessed two days after injection using flat-mounted, fluorescein-conjugated isolectin-staining and immunohistochemical analysis. Quantification of vessel density was performed with Adobe photoshop.

[6] = 50 nM, cultured with VEGF in the basal EBM2 medium

With `CN(C)[C@@H]1CC[C@H]2[C@@H](CC[C@@H]3[C@@H]2CC[C@]2(C)C(c4ccc5ccncc5c4)=CC[C@@H]32)C1` [EJC-1] the “morphological change of HUVE cells” value [1] was “No morphological change”, the “growth of HUVE cells (BrdU incorporation)” value [2] was “inhibit the growth” and the BrdU incorporation [2] was “inhibit”. The “doses that inhibited BrdU incorporation” value [2] was “greater than 1 μM”, the HUVE cell migration ([3]; 200 nM test compound) was “exhibited inhibitory activity” and the HUVE cell migration ([3]; 1 μM (1000 nM) test compound) was “inhibit”. For the same molecule, the HUVE cell migration ([3]; 2000 nM test compound) was “inhibit” and the tube formation ([4]; 2 μM) was “inhibited”.
With `CN(C)[C@H]1CC[C@H]2[C@@H](CC[C@@H]3[C@@H]2CC[C@]2(C)C(c4ccc5ccncc5c4)=CC[C@@H]32)C1` [EJC-2] the “morphological change of HUVE cells” value [1] was “No morphological change”, the “growth of HUVE cells (BrdU incorporation)” value [2] was “inhibit the growth” and the BrdU incorporation [2] was “inhibit”. For the same molecule, the “doses that inhibited BrdU incorporation” value [2] was > 200 nM, the HUVE cell migration ([3]; 200 nM test compound) was “exhibited inhibitory activity” and the HUVE cell migration ([3]; 1 μM (1000 nM) test compound) was “inhibit”. The tube formation ([4]; 200 nM, cultured with VEGF in the basal EBM2 medium) was “inhibited”, the tube formation ([4]; 2 μM) was “inhibited” and the “retinal angiogenesis, morphological analysis” value ([5]; 5-10 nmol in a single injection) was “appeared to inhibit retinal angiogenesis based on morphological analysis, but the sampling numbers were low and significant effects were not observed”.
For `CN(C)[C@H]1CC[C@H]2[C@@H](CC[C@@H]3[C@@H]2CC[C@]2(C)[C@@H](c4ccc5ccncc5c4)CC[C@@H]32)C1` [EJC-07], the HUVE cell migration ([3]; 200 nM test compound) was “active”.
In the case of `CN1CCc2ccc([C@H]3CC[C@H]4[C@@H]5CC[C@H]6C[C@@H](N(C)C)CC[C@@H]6[C@H]5CC[C@]34C)cc2C1` [EJC-8], the HUVE cell migration ([3]; 50 nM test compound) is reported as “inhibit”.
`CN1CCc2ccc(C3=CC[C@H]4[C@@H]5CC[C@H]6C[C@@H](N(C)C)CC[C@@H]6[C@H]5CC[C@]34C)cc2C1` [EJC-9] was tested, and the HUVE cell migration ([3]; 50 nM test compound) was “not active”, the HUVE cell migration ([3]; 200 nM test compound) was “not active” and the tube formation [4, 6] was “significant inhibition”. For the same molecule, the “tube formation, quantitative analysis of mean tube length” value ([4]; 50 nM) was “inhibit”.
With `CN(C)[C@H]1CC[C@H]2[C@@H](CC[C@@H]3[C@@H]2CC[C@]2(C)C(c4ccc5cnccc5c4)=CC[C@@H]32)C1` [EJC-10] the IC50 ([2]; Homo sapiens, in the presence of PDGF, read-out: IC50, cell growth induced by PDGF) was 79.5 nM, the IC50 ([2]; Homo sapiens, in the presence of VEGF, read-out: IC50, cell growth induced by VEGF) was 16.7 nM and the IC50 ([2]; Homo sapiens, in the presence of bFGF, read-out: IC50, cell growth induced by bFGF) was 64.1 nM. The IC50 ([2]; Homo sapiens, media absent an exogenous growth factor, read-out: IC50, growth of HUVE cells) was 57.6 nM, the “HUVE cell growth induced by PDGF” value [2] was “inhibited” and the “HUVE cell growth induced by VEGF” value [2] was “inhibited”. For the same molecule, the “HUVE cell growth induced by bFGF” value [2] was “inhibited”, the IC50 ([2]; in the presence of PDGF, read-out: IC50, cell growth induced by PDGF) was 79.5 nM and the IC50 ([2]; in the presence of bFGF, read-out: IC50, cell growth induced by bFGF) was 64.1 nM. The HUVE cell migration ([3]; 50 nM test compound) was “inhibit”, the IC50 ([3]; Homo sapiens, VEGF-stimulated, transwell, read-out: cell migration inhibition IC50) was 70.7 nM and the tube formation [4, 6] was “significant inhibition”. For the same molecule, the “tube formation, quantitative analysis of mean tube length” value ([4]; 50 nM) was “inhibit”, the retinal vessel formation ([5]; p6 mice) was “did not inhibit retinal vessel formation completely” and the retinal vessel formation ([5]; p14 mice) was “did not inhibit retinal vessel formation completely”. For the same molecule, the “vessel density in the retina compared to control” value ([5]; single dose of 500 pmol, p6 mice (FIG. 13)) was “decreases” and the retinal angiogenesis ([5]; single injection of 500 pmol, p6 mice) was “inhibited”.
In the case of `CN(C)[C@H]1CC[C@H]2[C@@H](CC[C@@H]3[C@@H]2CC[C@]2(C)C(c4ccc5ncccc5c4)=CC[C@@H]32)C1` [EJC-11], the HUVE cell migration ([3]; 50 nM test compound) is reported as “moderately active”.
With `CN(C)[C@H]1CC[C@H]2[C@@H](CC[C@@H]3[C@@H]2CC[C@]2(C)C(c4cccc5cnccc45)=CC[C@@H]32)C1` [EJC-12] the HUVE cell migration ([3]; 50 nM test compound) was “inhibit”.
In the case of `CN(C)[C@H]1CC[C@H]2[C@@H](CC[C@@H]3[C@@H]2CC[C@]2(C)C(c4cccc5ncccc45)=CC[C@@H]32)C1` [EJC-13], the HUVE cell migration ([3]; 50 nM test compound) is reported as “moderately active”.
With `CN(C)[C@H]1CC[C@H]2[C@@H](CC[C@@H]3[C@@H]2CC[C@]2(C)C(c4cccnc4)=CC[C@@H]32)C1` [EJC-14] the “cell growth induced by VEGF” value ([2]; 50 nM) was “inhibited”, the “HUVE cell growth induced by PDGF” value [2] was “only at higher concentrations and not” and the “HUVE cell growth induced by VEGF” value [2] was “inhibited”. For the same molecule, the “HUVE cell growth induced by bFGF” value [2] was “only at higher concentrations and not”, the HUVE cell migration ([3]; 50 nM test compound) was “inhibit” and the retinal vessel formation ([5]; p6 mice) was “did not inhibit”. The retinal vessel formation ([5]; p14 mice) was “did not inhibit”.
With `CN(C)[C@H]1CC[C@H]2[C@@H](CC[C@@H]3[C@@H]2CC[C@]2(C)C(c4ccncc4)=CC[C@@H]32)C1` [EJC-15] the HUVE cell migration ([3]; 50 nM test compound) was “inactive”.
In the case of `C[C@]12CC[C@H]3[C@@H](CC[C@H]4C[C@@H](N5CCCC5)CC[C@@H]43)[C@@H]1CC=C2c1ccc2ccncc2c1` [EJC-21], the HUVE cell migration ([3]; 50 nM test compound) is reported as “did not inhibit”.
For `C[C@]12CC[C@H]3[C@@H](CC[C@H]4C[C@@H](N5CCCC5)CC[C@@H]43)[C@@H]1CC=C2c1ccc2cnccc2c1` [EJC-22], the HUVE cell migration ([3]; 50 nM test compound) was “did not inhibit”.
`C[C@]12CC[C@H]3[C@@H](CC[C@H]4C[C@@H](N5CCOCC5)CC[C@@H]43)[C@@H]1CC=C2c1ccc2ccncc2c1` [EJC-23] was tested, and the HUVE cell migration ([3]; 50 nM test compound) was “did not inhibit”.
With `C[C@]12CC[C@H]3[C@@H](CC[C@H]4C[C@@H](N5CCOCC5)CC[C@@H]43)[C@@H]1CC=C2c1ccc2cnccc2c1` [EJC-24] the HUVE cell migration ([3]; 50 nM test compound) was “did not inhibit”.
